For 15 compounds, IC50 results are on record in patent publication US12594277B2, “Macrocyclic ULK1/2 inhibitors” (SALK INSTITUTE FOR BIOLOGICAL STUDIES, priority 2020, dated 2026).

In test [1] the target is T1, recombinant human ULK1 protein (1-649) (Homo sapiens, UniProt O75385).
T1 construct: recombinant human ULK1 protein (1-649, SignalChem #U01-11G); purchased SignalChem U01-11G
T1 sequence (O75385 1-649): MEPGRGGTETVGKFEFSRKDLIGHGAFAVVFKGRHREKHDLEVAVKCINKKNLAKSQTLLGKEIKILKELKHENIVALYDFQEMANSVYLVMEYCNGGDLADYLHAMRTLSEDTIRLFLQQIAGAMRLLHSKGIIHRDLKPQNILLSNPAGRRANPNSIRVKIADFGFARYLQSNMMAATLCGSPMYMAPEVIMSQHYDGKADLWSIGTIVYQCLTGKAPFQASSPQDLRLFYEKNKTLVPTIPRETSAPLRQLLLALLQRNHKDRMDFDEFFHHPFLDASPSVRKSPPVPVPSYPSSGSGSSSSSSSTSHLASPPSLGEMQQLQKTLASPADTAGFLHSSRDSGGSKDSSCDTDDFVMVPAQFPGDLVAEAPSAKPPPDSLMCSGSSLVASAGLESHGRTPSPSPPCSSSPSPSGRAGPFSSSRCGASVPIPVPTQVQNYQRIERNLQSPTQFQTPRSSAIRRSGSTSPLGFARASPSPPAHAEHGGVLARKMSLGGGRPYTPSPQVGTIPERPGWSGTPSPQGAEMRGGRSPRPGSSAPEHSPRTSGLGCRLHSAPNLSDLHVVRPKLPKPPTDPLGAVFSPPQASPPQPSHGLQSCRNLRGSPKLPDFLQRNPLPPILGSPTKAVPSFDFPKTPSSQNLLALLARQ
The test is described as follows: ULK1 inhibition assay (ADP-Glo). In kind it is biochemical. As to conditions: 2 ug/mL ULK1, 80 ug/mL myelin basic protein, 25 uM ATP, assessed after one hour. Here is the method: IC50s measured by ADP-Glo assay are represented nM, with A representing IC50<20 nM, B representing IC50>20 nM. NT indicates the compound was not tested. ULK1 inhibition assays were performed in a 5 uL reaction volume containing 2 ug/mL recombinant human ULK1 protein (1-649, SignalChem #U01-11G) and 80 ug/mL myelin basic protein (MBP, Sigma-Aldrich #M1891) in the presence of 25 uM ATP (Sigma-Aldrich A7699). ULK 1 inhibition was assessed after one hour. Compounds were tested in triplicate in a 16-dose IC50 mode with 3-fold serial dilution and a starting dose of 30 uM. Staurosporine, a non-selective protein kinase inhibitor, was used in the assay as a positive control. Three separate experiments were carried out.
(In general: ADP-Glo turns the ADP formed in a reaction into a luminescent signal.)

The target in test [2] is T2, NanoLuc-ULK1 fusion in HEK293T cells (Homo sapiens, UniProt O75385).
T2 construct: host or cells: HEK293T
T2 sequence (O75385 1-1050): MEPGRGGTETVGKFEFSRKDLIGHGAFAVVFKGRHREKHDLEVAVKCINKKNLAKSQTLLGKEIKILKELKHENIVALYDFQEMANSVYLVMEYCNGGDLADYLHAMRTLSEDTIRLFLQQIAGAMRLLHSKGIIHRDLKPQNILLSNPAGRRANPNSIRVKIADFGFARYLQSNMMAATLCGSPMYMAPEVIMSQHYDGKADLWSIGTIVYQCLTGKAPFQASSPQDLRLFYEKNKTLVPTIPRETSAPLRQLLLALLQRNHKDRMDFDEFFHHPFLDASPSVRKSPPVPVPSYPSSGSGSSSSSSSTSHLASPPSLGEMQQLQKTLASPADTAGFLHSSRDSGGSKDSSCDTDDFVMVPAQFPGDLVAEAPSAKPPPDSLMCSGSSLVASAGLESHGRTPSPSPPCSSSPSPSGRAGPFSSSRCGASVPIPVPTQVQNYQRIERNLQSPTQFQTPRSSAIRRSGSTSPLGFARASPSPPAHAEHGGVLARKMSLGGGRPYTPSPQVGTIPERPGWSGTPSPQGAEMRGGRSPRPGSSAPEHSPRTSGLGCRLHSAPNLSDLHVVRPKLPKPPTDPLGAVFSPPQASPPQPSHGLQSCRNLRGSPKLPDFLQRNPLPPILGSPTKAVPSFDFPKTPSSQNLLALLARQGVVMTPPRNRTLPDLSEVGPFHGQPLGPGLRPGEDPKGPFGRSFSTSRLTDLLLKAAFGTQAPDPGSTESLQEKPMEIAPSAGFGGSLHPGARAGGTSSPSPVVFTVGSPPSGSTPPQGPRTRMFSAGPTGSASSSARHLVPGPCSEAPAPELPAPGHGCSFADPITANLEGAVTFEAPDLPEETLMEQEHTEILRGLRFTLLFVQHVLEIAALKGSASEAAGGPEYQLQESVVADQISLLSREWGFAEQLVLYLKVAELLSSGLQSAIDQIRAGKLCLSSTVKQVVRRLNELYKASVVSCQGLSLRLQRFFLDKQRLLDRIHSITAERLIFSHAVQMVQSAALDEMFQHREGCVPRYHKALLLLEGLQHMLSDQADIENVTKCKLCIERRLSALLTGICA
In words: ULK1 NanoBRET assay. The test is classed as cell-based. As to conditions: HEK293T transfected with NanoLuc-ULK1 Fusion Vector, Tracer K-5, 2 h incubation. The method, then: IC50s were also measured by ULK1 NanoBRET assay according to the following protocol: Human embryonic kidney cells (HEK293T) were transfected with NanoLuc®-ULK1 Fusion Vector (Promega #NV2211) using jetPRIME transfection reagent (Polyplus Transfection #114-15). Following 24 h, cells were trypsinized and resuspended in Opti-MEM® I (1×), Reduced Serum Medium (Gibco, #11058-021). Approximately, 7,000 cells per well (in 34 μL total volume) were replated into non-binding surface 384 well plates. Complete NanoBRET 20× Tracer K-5 reagent was prepared according to the manufacturer's directions and 2 μL were added to each well of the 384 plate (assay plate). The assay plate was mixed on an orbital shaker for 15 seconds at 700 rpm. Compounds were serially diluted at 200× final concentration in […], then diluted to 10× final concentration in assay media (Opti-MEM® I, Reduced Serum Medium). Next, 4 μL 10× test compounds were added to each well of the assay plate, followed by mixing at 700 rpm for 15 seconds. The assay plate was incubated for 2 h in a 37 C incubator with […] and then equilibrated to RT for 15 min. The 3× Complete Substrate plus Inhibitor Solution was prepared according to the manufacturer's directions with a concentration of Extracellular NanoLuc® Inhibitor of 60 μM to be used at a working concentration of 20 μM. The 3× Complete Substrate plus Inhibitor Solution was mixed and 20 μL per well was added to the assay plate and incubated at RT for 2-3 min. Donor emission wavelength (450 nm) and acceptor emission wavelength (610 nm) were measured using an assay compatible luminometer (see manufacturer's specifications).
A general note: BRET reads energy transfer from a luciferase to a nearby fluorophore.

Usually IC50 stands for the concentration needed to halve the response being measured. For `CNC(=O)c1cc2ccc1Nc1nc(ncc1C(F)(F)F)Nc1ccc(c(OC)c1)OCCCCCO2` [Compound 1, 1^3-Methoxy-N-methyl-3^5-(trifluoromethyl)-6,12-dioxa-2,4-diaza-3(2,4)-pyrimidina-1,5(1,4)-dibenzenacyclododecaphane-5^2-carboxamide], the IC50 is below 20 nM in test [1] and above 1000 nM in test [2].

For `C=CCCOc1ccc(Nc2nc(Nc3ccc(OCC=C)c(OC)c3)ncc2C(F)(F)F)c(C(=O)NC)c1` [Compound 2, 2-((2-((4-(Allyloxy)-3-methoxyphenyl)amino)-5-(trifluoromethyl)pyrimidin-4-yl)amino)-5-(but-3-en-1-yloxy)-N-methylbenzamide], the IC50 in test [1] is above 20 nM.

As to `CNC(=O)c1cc2ccc1Nc1nc(ncc1C(F)(F)F)Nc1ccc(c(OC)c1)OC/C=C/CCO2` [Compound 3, (E)-1^3-methoxy-N-methyl-3^5-(trifluoromethyl)-6,12-dioxa-2,4-diaza-3(2,4)-pyrimidina-1,5(1,4)-dibenzenacyclododecaphan-9-ene-5^2-carboxamide], the IC50 in test [1] was above 20 nM; in test [2] it was below 1000 nM.

For `CNC(=O)c1cc2ccc1Nc1nc(ncc1C(F)(F)F)Nc1ccc(c(OC)c1)OC/C=C\CCO2` [Compound 4, (Z)-1^3-methoxy-N-methyl-3^5-(trifluoromethyl)-6,12-dioxa-2,4-diaza-3(2,4)-pyrimidina-1,5(1,4)-dibenzenacyclododecaphan-9-ene-5^2-carboxamide], the values for the IC50 in test [1] and in test [2] were above 20 nM and below 1000 nM, respectively.

On to `C=CCCCOc1ccc(Nc2nc(Nc3ccc(OCC=C)c(OC)c3)ncc2C(F)(F)F)c(C(=O)NC)c1` [Compound 5, 2-((2-((4-(Allyloxy)-3-methoxyphenyl)amino)-5-(trifluoromethyl)pyrimidin-4-yl)amino)-N-methyl-5-(pent-4-en-1-yloxy)benzamide], for which the results for the IC50 in test [1] and in test [2] were above 20 nM and above 1000 nM, respectively.

Take `CNC(=O)c1cc2ccc1Nc1nc(ncc1C(F)(F)F)Nc1ccc(c(OC)c1)OC/C=C/CCCO2` [Compound 6, (E/Z)-1^3-Methoxy-N-methyl-3^5-(trifluoromethyl)-6,13-dioxa-2,4-diaza-3(2,4)-pyrimidina-1,5(1,4)-dibenzenacyclotridecaphan-10-ene-5^2-carboxamide]: the IC50 in test [1] is below 20 nM; in test [2] it was below 1000 nM.

Consider `CNC(=O)c1cc2ccc1Nc1nc(ncc1C(F)(F)F)Nc1ccc(c(OC)c1)OCCCCCCO2` [Compound 7, 1^3-Methoxy-N-methyl-3^5-(trifluoromethyl)-6,13-dioxa-2,4-diaza-3(2,4)-pyrimidina-1,5(1,4)-dibenzenacyclotridecaphane-5^2-carboxamide], for which the IC50 in test [1] is below 20 nM.

`C=CCCOc1ccc(Nc2nc(Nc3ccc(OC)c(OCC=C)c3)ncc2C(F)(F)F)c(C(=O)NC)c1` [Compound 8, 2-((2-((3-(Allyloxy)-4-methoxyphenyl)amino)-5-(trifluoromethyl)pyrimidin-4-yl)amino)-5-(but-3-en-1-yloxy)-N-methylbenzamide]: the IC50 in test [1] is below 20 nM.

Take `CNC(=O)c1cc2ccc1Nc1nc(ncc1C(F)(F)F)Nc1ccc(OC)c(c1)OC/C=C/CCO2` [Compound 9, (E/Z)-1^4-Methoxy-N-methyl-3^5-(trifluoromethyl)-6,12-dioxa-2,4-diaza-3(2,4)-pyrimidina-1(1,3),5(1,4)-dibenzenacyclododecaphan-9-ene-5^2-carboxamide]: the figures for the IC50 in test [1] and in test [2] were below 20 nM and below 1000 nM, respectively.

Turning to `CNC(=O)c1cc2ccc1Nc1nc(ncc1C(F)(F)F)Nc1ccc(OC)c(c1)OCCCCCO2` [Compound 10, 1^4-Methoxy-N-methyl-3^5-(trifluoromethyl)-6,12-dioxa-2,4-diaza-3(2,4)-pyrimidina-1(1,3), 5(1,4)-dibenzenacyclododecaphane-5^2-carboxamide], the IC50 in test [1] was below 20 nM; in test [2], above 1000 nM.

With `C=CCCOc1ccc(Nc2nc(Nc3ccc(OCC=C)c(OC)c3)ncc2Br)c(C(=O)NC)c1` [Compound 11], the IC50 in test [1] is above 20 nM.

For `CNC(=O)c1ccc2cc1Nc1nc(ncc1C(F)(F)F)Nc1ccc(OC)c(c1)OC/C=C\CCCO2` [Compound 12, (E)-1^4-methoxy-N-methyl-35-(trifluoromethyl)-6,13-dioxa-2,4-diaza-3(2,4)-pyrimidina-1,5(1,3)-dibenzenacyclotridecaphan-10-ene-5^6-carboxamide], the figures for the half-maximal inhibitory concentration (IC50) in test [1] and in test [2] were above 20 nM and above 1000 nM, respectively.

For the compound `CNC(=O)c1ccc2cc1Nc1nc(ncc1C(F)(F)F)Nc1ccc(OC)c(c1)OC/C=C/CCCO2` [Compound 13, (Z)-1^4-methoxy-N-methyl-35-(trifluoromethyl)-6,13-dioxa-2,4-diaza-3(2,4)-pyrimidina-1,5(1,3)-dibenzenacyclotridecaphan-10-ene-5^6-carboxamide], the IC50 was above 20 nM in test [1] and above 1000 nM in test [2].

With `CNC(=O)c1ccc2cc1Nc1nc(ncc1C(F)(F)F)Nc1ccc(OC)c(c1)OCCCCCCO2` [Compound 14, 1^4-Methoxy-N-methyl-3^5-(trifluoromethyl)-6,13-dioxa-2,4-diaza-3(2,4)-pyrimidina-1,5(1,3)-dibenzenacyclotridecaphane-5^6-carboxamide], the figures for the IC50 in test [1] and in test [2] were above 20 nM and above 1000 nM, respectively.

As for `CNC(=O)c1ccc2cc1Nc1nc(ncc1C(F)(F)F)Nc1ccc(c(OC)c1)OC/C=C/CCCO2` [Compound 15, (E)-5^3-methoxy-N-methyl-3^5-(trifluoromethyl)-6,13-dioxa-2,4-diaza-3(4,2)-pyrimidina-1(1,3),5(1,4)-dibenzenacyclotridecaphan-8-ene-1^6-carboxamide], the IC50 in test [1] is above 20 nM; in test [2], above 1000 nM.
